Laboratory results published in US7632829B2, “Diazepan derivatives” (Hoffmann-La Roche Inc., priority 2006, dated 2009).
Structures can show the parent of a compound that is named as a salt.

Biological target: T1, human chemokine receptor 2 isoform B (Homo sapiens, UniProt P41597)
T1 construct: host or cells: CHOK1-CCR2B-A5 (CHO-K1)
T1 sequence (P41597 1-360 isoform P41597-2): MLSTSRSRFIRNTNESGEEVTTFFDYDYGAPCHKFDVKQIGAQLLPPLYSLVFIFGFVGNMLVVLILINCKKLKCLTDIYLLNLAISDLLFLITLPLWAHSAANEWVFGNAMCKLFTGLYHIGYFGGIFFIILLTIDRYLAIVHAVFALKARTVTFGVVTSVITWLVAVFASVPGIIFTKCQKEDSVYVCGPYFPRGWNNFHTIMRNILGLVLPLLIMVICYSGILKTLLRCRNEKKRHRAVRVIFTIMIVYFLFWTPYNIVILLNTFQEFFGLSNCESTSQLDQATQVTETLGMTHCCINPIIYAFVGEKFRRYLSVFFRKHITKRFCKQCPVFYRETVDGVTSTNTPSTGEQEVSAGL
Assay: Calcium mobilization assay (FLIPR, CHOK1-CCR2B-A5 cells, 20 nM MCP-1)
Assay type: cell-based
Settings: Ca mobilisation assay, CCR2, antagonist activity vs 20 nM MCP-1
How it was run: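 Antagonism read as IC50 against 20 nM MCP-1-evoked calcium rise (peak minus baseline Fluo-4 signal, FLIPR) in CCR2B-overexpressing CHO-K1 cells. Compounds were preincubated 20-30 min at 30 °C, with agonist activity recorded for 80 s on addition.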

| IC50 | SMILES |
| --- | --- |
| 0.12 µM | O=C(/C=C/c1ccc(Cl)c(Cl)c1)N1CCC(=O)N(CCCN2CCC(O)C3(CC3)C2)CC1 (racemic) [Example 252] |
| 0.051 µM | CC1(CO)CCN(CCCCN2CCN(C(=O)C=Cc3ccc(Cl)c(Cl)c3)CCC2=O)CC1O (stereo not drawn) [Example 473] |
| 0.014 µM | CC1CCC(O)CN1CCCCN1CCN(C(=O)/C=C/c2ccc(Cl)c(Cl)c2)CCC1=O (racemic) [Example 487] |
| 0.333 µM | O=C(/C=C/c1ccc(Cl)c(Cl)c1)N1CCC(=O)N(CCCN2CCCC2)CC1 [Example 46, 1-[(E)-3-(3,4-Dichloro-phenyl)-acryloyl]-4-(3-pyrrolidin-1-yl-propyl)-[1,4]diazepan-5-one] |
| 0.003 µM | COC(=O)C(CCCN1CCCCC1)N1CCN(C(=O)/C=C/c2ccc(Cl)c(Cl)c2)CCC1=O (racemic) [Example 179, (rac)-2-{4-[(E)-3-(3,4-Dichloro-phenyl)-acryloyl]-7-oxo-[1,4]diazepan-1-yl}-5-piperidin-1-yl-pentanoic acid methyl ester] |
| 0.026 µM | C[C@@H]1C[C@H](O)CN(C[C@H](O)CN2CCN(C(=O)/C=C/c3ccc(F)c(Cl)c3)CCC2=O)C1 (mixture of isomers) [Example 344, 1-[(E)-3-(3-Chloro-4-fluoro-phenyl)-acryloyl]-4-[(S)-2-hydroxy-3-(cis-3-hydroxy-5-methyl-piperidin-1-yl)-propyl]-[1,4]diazepan-5-one] |
| 0.189 µM | O=C(/C=C/c1ccc(Cl)c(Cl)c1)N1CCC(=O)N(CCCN2CCC[C@H](O)C2)CC1 [Example 92, (S)-1-[(E)-3-(3,4-Dichloro-phenyl)-acryloyl]-4-[3-(3-hydroxy-piperidin-1-yl)-propyl]-[1,4]diazepan-5-one] |
| 0.451 µM | CC1(C)CCN(C[C@H](O)CCN2CCN(C(=O)/C=C/c3ccc(F)c(Cl)c3)CCC2=O)CC1O (stereo partly drawn) [Example 500] |
| 0.212 µM | C[C@H]1[C@H](O)CCCN1CC(O)CN1CCN(C(=O)/C=C/c2ccc(Cl)c(Cl)c2)CCC1=O (mixture of isomers) [Example 282] |
| 0.055 µM | C[C@@]1(CO)CCN(CCCN2CCN(C(=O)/C=C/c3ccc(Cl)c(Cl)c3)CCC2=O)C[C@H]1O (racemic) [Example 271, (rac,trans)-1-[(E)-3-(3,4-Dichloro-phenyl)-acryloyl]-4-[3-(3-hydroxy-4-hydroxymethyl-4-methyl-piperidin-1-yl)-propyl]-[1,4]diazepan-5-one] |
| 0.56 µM | O=C(/C=C/c1ccc(Cl)c(Cl)c1)N1CCC(=O)N(CCCCN2CC[C@H](O)[C@H](O)C2)CC1 (racemic) [Example 163, 1-[(E)-3-(3,4-Dichloro-phenyl)-acryloyl]-4-[4-((3RS,4SR)-3,4-dihydroxy-piperidin-1-yl)-butyl]-[1,4]diazepan-5-one hydrochlorid] |
| 0.565 µM | COCC1CCCN(CCCN2CCN(C(=O)/C=C/c3ccc(Cl)c(Cl)c3)CCC2=O)C1 (racemic) [Example 236] |
| 0.375 µM | CC(C)CN1CCN(CCCN2CCN(C(=O)/C=C/c3ccc(Cl)c(Cl)c3)CCC2=O)CC1 [Example 258] |
| 0.106 µM | C[C@@]1(CO)CCN(CCCCN2CCN(C(=O)/C=C/c3ccc(Cl)c(Cl)c3)CCC2=O)C[C@H]1O [Example 474] |
| 0.253 µM | C[C@@H]1C[C@H](O)CN(C[C@H](O)CCN2CCN(C(=O)/C=C/c3ccc(F)c(Cl)c3)CCC2=O)C1 [Example 502] |
| 0.086 µM | O=C(C=Cc1ccc(Cl)c(Cl)c1)N1CCC(=O)N(CCCCN2CCC(F)C(O)C2)CC1 (mixture of isomers) [Example 429, (rac,trans)-1-[(E)-3-(3,4-Dichloro-phenyl)-acryloyl]-4-[4-(4-fluoro-3-hydroxy-piperidin-1-yl)-butyl]-[1,4]diazepan-5-one] |
| 0.105 µM | O=C(/C=C/c1ccc(Cl)c(Cl)c1)N1CCC(=O)N(CC[C@@H](O)CN2CCCCC2)CC1 [Example 172, 1-[(E)-3-(3,4-Dichloro-phenyl)-acryloyl]-4-((R)-3-hydroxy-4-piperidin-1-yl-butyl)-[1,4]diazepan-5-one] |
| 0.182 µM | CC1(C)CN(CCCN2CCN(C(=O)/C=C/c3ccc(Cl)c(Cl)c3)CCC2=O)CCC1O (racemic) [Example 257] |
| 1.14 µM | O=C(/C=C/c1ccc(Cl)c(Cl)c1)N1CCC(=O)N(CCN2CCC(O)(c3ccccc3)CC2)CC1 [Example 96, 1-[(E)-3-(3,4-Dichloro-phenyl)-acryloyl]-4-[3-(4-hydroxy-4-phenyl-piperidin-1-yl)-ethyl]-[1,4]diazepan-5-one] |
| 0.584 µM | O=C(/C=C/c1ccc(F)c(Cl)c1)N1CCC(=O)N(CCCCN2CCCCC2CO)CC1 (racemic) [Example 387] |

| IC50 | SMILES |
| --- | --- |
| 0.494 µM | O=C1NC(=O)C2(CCN(CCCN3CCN(C(=O)/C=C/c4ccc(F)c(Cl)c4)CCC3=O)CC2)N1 [Example 194] |
| 0.725 µM | O=C(/C=C/c1ccc(Cl)c(Cl)c1)N1CCC(=O)N(CCCNC2CCCC2)CC1 [Example 36, 4-[3-(Cyclopentyl-amino)-propyl]-1-[(E)-3-(3,4-dichloro-phenyl)-acryloyl]-[1,4]diazepan-5-one] |
| 0.073 µM | CN(CCCCN1CCN(C(=O)/C=C/c2ccc(Cl)c(Cl)c2)CCC1=O)C1CCOCC1 [Example 10, 1-[(E)-3-(3,4-Dichloro-phenyl)-acryloyl]-4-{4-[methyl-(tetrahydro-pyran-4-yl)-amino]-butyl}-[1,4]diazepan-5-one] |
| 0.013 µM | CC1CC(O)CN(CCCCN2CCN(C(=O)C=Cc3ccc(Cl)c(Cl)c3)CCC2=O)C1 (mixture of isomers) [Example 482, (rac,cis)-1-[(E)-3-(3,4-Dichloro-phenyl)-acryloyl]-4-[4-(3-hydroxy-5-methyl-piperidin-1-yl)-butyl]-[1,4]diazepan-5-one] |
| 0.033 µM | CC(=O)NC1CCN(CCCCN2CCN(C(=O)/C=C/c3ccc(Cl)c(Cl)c3)CCC2=O)CC1 [Example 453] |
| 0.878 µM | O=C(/C=C/c1ccc(F)c(Cl)c1)N1CCC(=O)N(CCCCN2CCC(O)C2)CC1 (racemic) [Example 393] |
| 0.215 µM | O=C(/C=C/c1ccc(Cl)c(Cl)c1)N1CCC(=O)N(CCCN2CC[C@H](CO)[C@@H](O)C2)CC1 (racemic) [Example 268, (rac,trans)-1-[(E)-3-(3,4-Dichloro-phenyl)-acryloyl]-4-[3-(3-hydroxy-4-hydroxymethyl-piperidin-1-yl)-propyl]-[1,4]diazepan-5-one] |
| 0.064 µM | CC1CC(O)CN(CCCCN2CCN(C(=O)C=Cc3ccc(Cl)c(F)c3)CCC2=O)C1 (mixture of isomers) [Example 421, (rac,cis)-1-[(E)-3-(4-Chloro-3-fluoro-phenyl)-acryloyl]-4-[4-(3-hydroxy-5-methyl-piperidin-1-yl)-butyl]-[1,4]diazepan-5-one] |
| 0.448 µM | O=C(/C=C/c1ccc(Cl)c(Cl)c1)N1CCC(=O)N(CCC(O)CN2CCCCC2)CC1 (racemic) [Example 170, (rac)-1-[(E)-3-(3,4-Dichloro-phenyl)-acryloyl]-4-(3-hydroxy-4-piperidin-1-yl-butyl)-[1,4]diazepan-5-one] |
| 0.061 µM | COC[C@H]1CCN(CCCCN2CCN(C(=O)/C=C/c3ccc(Cl)c(Cl)c3)CCC2=O)C[C@H]1O (racemic) [Example 469] |
| 1.23 µM | O=C(O)C(CN1CCCCC1)CN1CCN(C(=O)/C=C/c2ccc(Cl)c(Cl)c2)CCC1=O (racemic) [Example 183, Lithium; (rac)-3-{4-[(E)-3-(3,4-dichloro-phenyl)-acryloyl]-7-oxo-[1,4]diazepan-1-yl}-2-piperidin-1-ylmethyl-propionate] |
| 0.054 µM | COCC1CCCN(CCCCN2CCN(C(=O)/C=C/c3ccc(F)c(Cl)c3)CCC2=O)C1 (racemic) [Example 392] |
| 0.313 µM | COC1CCC(CO)N(CCCCN2CCN(C(=O)/C=C/c3ccc(Cl)c(Cl)c3)CCC2=O)C1 (racemic) [Example 477] |
| 0.14 µM | O=C(/C=C/c1ccc(Cl)c(Cl)c1)N1CCC(=O)N(CCCCN2CCCCC2)CC1 [Example 9, 1-[(E)-3-(3,4-Dichloro-phenyl)-acryloyl]-4-(4-piperidin-1-yl-butyl)-[1,4]diazepan-5-one] |
| 0.021 µM | CC1CCN(CC(O)CN2CCN(C(=O)/C=C/c3ccc(Cl)c(Cl)c3)CCC2=O)CC1O (racemic) [Example 280] |
| 1.09 µM | COC1COCCC1NCCCN1CCN(C(=O)C=Cc2ccc(Cl)c(Cl)c2)CCC1=O (mixture of isomers) [Example 275, (rac,cis)-1-[(E)-3-(3,4-Dichloro-phenyl)-acryloyl]-4-[3-(3-methoxy-tetrahydro-pyran-4-ylamino)-propyl]-[1,4]diazepan-5-one] |
| 0.026 µM | O=C(/C=C/c1cnc(Cl)c(Cl)c1)N1CCC(=O)N(CCCN2CCC3(CC3)C(O)C2)CC1 (stereo not drawn) [Example 497, 1-[(E)-3-(5,6-Dichloro-pyridin-3-yl)-acryloyl]-4-[3-((-)-4-hydroxy-6-aza-spiro[2.5]oct-6-yl)-propyl]-[1,4]diazepan-5-one] |
| 0.14 µM | O=C(C=Cc1ccc(Cl)c(Cl)c1)N1CCC(=O)N(CCCCN2CCC(O)C(F)C2)CC1 (mixture of isomers) [Example 434, (rac,trans)-1-[(E)-3-(3,4-Dichloro-phenyl)-acryloyl]-4-[4-(3-fluoro-4-hydroxy-piperidin-1-yl)-butyl]-[1,4]diazepan-5-one] |
| 0.004 µM | CC1(C)CCN(CCCN2CCN(C(=O)/C=C/c3ccc(Cl)c(Cl)c3)CCC2=O)CC1O (racemic) [Example 274] |
